Results taken from patent US5776928A (priority 1995, dated 1998).

Experiments:
[1] = tested on: muscarinic cholinergic receptor; test: pharmacological studies, muscarinic cholinergic receptor activity
rats = test: in vivo observation in rats exposed to an overdose
clinical subjects = test: clinical observation of pupils in clinical subjects; type: in vivo
[2] = detection of radiolabelled compound in saliva; type: in vivo
Method: For example, in the treatment of adult humans, dosages of from about 0.25 to 50 mg, preferably from 1 to 30 mg, and most preferably 1 to 20 mg per day may be used. A once a day dosage is normally sufficient, although divided doses may be administered. For treatment of a dyskinesia, a dose range of from 1 to 30 mg, preferably 1 to 20 mg per day is suitable.

5-HT1C receptor = test: activity at the 5-HT1C receptor; details: anhydrous Form I

With `Cc1cc2c(s1)Nc1ccccc1N=C2N1CCN(C)CC1` the “muscarinic cholinergic receptor activity” value [1] was “has muscarinic cholinergic receptor activity”, the salivation (rats) was “significant salivation” and the pupilary effect (clinical subjects) was “pupilary constriction rather than the expected pupilary dilation”. The “detection in the saliva” value [2] was “can be detected in the saliva”.

With `Cc1cc2c(s1)Nc1ccccc1N=C2N1CCN(C)CC1` [anhydrous Form I compound] the “activity at the 5-HT1C receptor” value (5-HT1C receptor) was “active”.
